Source: US20060069132A1, “Azolecarboxamide herbicides” (priority 2004, published 2006)
Where two headings read alike, the source gives them in different places.

Tests used:
wild oat = assay: Test B postemergence herbicide test; format: in vivo, Avena fatua; details: Avena fatua, post-emergence, 336 h, postemergence, visual rating, scale 0 (no effect) to 100 (complete control), read-out: Oat, Wild plant response rating
Outline: (§1)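 Postemergence plants were sprayed with formulated test chemicals at 2 to 18 cm height (1- to 4-leaf stage); paddy species were grown to the 2-leaf stage. After 13 to 15 days in a greenhouse, injury was rated visually against untreated controls on a 0–100 scale (0 = no effect, 100 = complete control).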

Surinam grass = assay: Test B pre-/postemergence herbicide test; format: in vivo, Urochloa decumbens; details: Urochloa decumbens; for pest or weed control at 125 g/ha: 125 g ai/ha; for pest or weed control at 500 g/ha: 500 g ai/ha
Outline: (§2)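 Formulation: non-phytotoxic solvent mix with surfactant. Timing: preemergence on seed and postemergence on 2–18 cm plants, applied concurrently. Readout after 13–15 d greenhouse: visual 0–100 control rating against controls.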

pigweed = assay: Test B pre-/postemergence herbicide test; format: in vivo, Amaranthus retroflexus; details: Amaranthus retroflexus, 336 h; for pest or weed control at 125 g/ha: 125 g ai/ha; for pest or weed control at 500 g/ha: 500 g ai/ha
Outline: as §2

barnyardgrass [1] = assay: Test B flooded paddy test; format: in vivo, Echinochloa crus-galli; details: Echinochloa crus-galli, 336 h, 1000 g ai/ha, visual rating, scale 0 to 100 (0 no effect, 100 complete control), 13 to 15 days, read-out: Barnyardgrass plant response rating
Outline: (§3)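 Read-out: visual comparison with controls, scored 0 to 100, where 100 means complete control and 0 no effect. Formulated chemicals were applied postemergence to plants 2–18 cm tall (1- to 4-leaf), or to flooded-paddy plants at the 2-leaf stage, then held 13 to 15 days under glass.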

barnyardgrass [2] = assay: Test B pre-/postemergence herbicide test; format: in vivo, Echinochloa crus-galli; details: Echinochloa crus-galli; for pest or weed control at 125 g/ha: 125 g ai/ha; for pest or weed control at 500 g/ha: 500 g ai/ha
Outline: (§4)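 Pre: seeds sown, then sprayed. Post: 1–4-leaf plants (2–18 cm) sprayed at the same time. Paddy: flooded, treated at 2-leaf stage. Formulation: non-phytotoxic solvent with surfactant. Greenhouse 13–15 days; visual 0–100 score relative to controls.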

lambsquarters = assay: Test B pre-/postemergence herbicide test; format: in vivo, Chenopodium album; details: Chenopodium album, 336 h; for pest or weed control at 125 g/ha: 125 g ai/ha; for pest or weed control at 500 g/ha: 500 g ai/ha
Outline: as §2

blackgrass = assay: Test B postemergence herbicide test; format: in vivo, Alopecurus myosuroides; details: Alopecurus myosuroides, post-emergence, 336 h, postemergence, visual rating, scale 0 (no effect) to 100 (complete control), read-out: Blackgrass plant response rating
Outline: as §3

cocklebur = assay: Test B pre-/postemergence herbicide test; format: in vivo, Xanthium strumarium; details: Xanthium strumarium; for pest or weed control at 125 g/ha: 125 g ai/ha; for pest or weed control at 500 g/ha: 500 g ai/ha
Outline: as §4

velvetleaf = assay: Test B pre-/postemergence herbicide test; format: in vivo, Abutilon theophrasti; details: Abutilon theophrasti, 336 h; for pest or weed control at 125 g/ha: 125 g ai/ha; for pest or weed control at 500 g/ha: 500 g ai/ha
Outline: as §2

morningglory = assay: Test B pre-/postemergence herbicide test; format: in vivo, Ipomoea coccinea; details: Ipomoea, 336 h; for pest or weed control at 125 g/ha: 125 g ai/ha; for pest or weed control at 500 g/ha: 500 g ai/ha
Outline: as §4

large crabgrass = assay: Test B pre-/postemergence herbicide test; format: in vivo, Digitaria sanguinalis; details: Digitaria sanguinalis; for pest or weed control at 125 g/ha: 125 g ai/ha; for pest or weed control at 500 g/ha: 500 g ai/ha
Outline: as §2

wheat = assay: Test B postemergence herbicide test; format: in vivo, Triticum aestivum; details: Triticum aestivum, post-emergence, 336 h, postemergence, visual rating, scale 0 (no effect) to 100 (complete control), read-out: Wheat plant response rating
Outline: as §1

[3] = system: small flower umbrella sedge; assay: Test B flooded paddy test; format: in vivo, Cyperus difformis; details: Cyperus difformis, 336 h, 1000 g ai/ha, visual rating, scale 0 to 100 (0 no effect, 100 complete control), 13 to 15 days, read-out: Sedge, Umbrella plant response rating
Outline: as §3

giant foxtail = assay: Test B pre-/postemergence herbicide test; format: in vivo, Setaria faberi; details: Setaria faberi, 336 h; for pest or weed control at 125 g/ha: 125 g ai/ha; for pest or weed control at 500 g/ha: 500 g ai/ha
Outline: as §2

rice = assay: Test B flooded paddy test; format: in vivo, Oryza sativa; details: Oryza sativa, 336 h, 1000 g ai/ha, visual rating, scale 0 to 100 (0 no effect, 100 complete control), 13 to 15 days, read-out: Rice plant response rating
Outline: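 Scale 0–100: zero equals no visible effect, 100 complete control, judged by eye relative to controls. Timing: 13 to 15 days in greenhouse post-treatment. Growth stage at spraying: two leaves (paddy) or one to four leaves, 2–18 cm (postemergence).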

[4] = post-emergence, postemergence, visual rating, scale 0 (no effect) to 100 (complete control), read-out: Surinam Grass plant response rating
[5] = post-emergence, postemergence, visual rating, scale 0 (no effect) to 100 (complete control), read-out: Pigweed plant response rating
[6] = post-emergence, postemergence, visual rating, scale 0 (no effect) to 100 (complete control), read-out: Barnyardgrass plant response rating
[7] = post-emergence, postemergence, visual rating, scale 0 (no effect) to 100 (complete control), read-out: Lambsquarters plant response rating
[8] = post-emergence, postemergence, visual rating, scale 0 (no effect) to 100 (complete control), read-out: Cocklebur plant response rating
[9] = post-emergence, postemergence, visual rating, scale 0 (no effect) to 100 (complete control), read-out: Velvetleaf plant response rating
[10] = post-emergence, postemergence, visual rating, scale 0 (no effect) to 100 (complete control), read-out: Morningglory plant response rating
[11] = post-emergence, postemergence, visual rating, scale 0 (no effect) to 100 (complete control), read-out: Crabgrass, Large plant response rating
[12] = post-emergence, postemergence, visual rating, scale 0 (no effect) to 100 (complete control), read-out: Foxtail, Giant plant response rating

Compound `CCNC(=O)c1cccc(NC(=O)c2nn(C(C)(C)C)cc2Br)c1` [Compound 221, 4-bromo-1-(1,1-dimethylethyl)-N-[3-[(ethylamino)carbonyl]phenyl]-1H-pyrazole-3-carboxamide] has a pest or weed control at 125 g/ha (wild oat; 125 g ai/ha) of 0%, a pest or weed control at 500 g/ha (wild oat; 500 g ai/ha) of 10% and a pest or weed control at 125 g/ha (Surinam grass; [4]) of 0%. For the same compound, the pest or weed control at 500 g/ha (Surinam grass; [4]) was 10%, the pest or weed control at 125 g/ha (Surinam grass; pre-emergence, 0 = no effect, 100 = complete control, read-out: Surinam Grass plant response rating (0 to 100 scale)) was 0% and the pest or weed control at 500 g/ha (Surinam grass; pre-emergence, visual rating, 0 = no effect, 100 = complete control, read-out: Plant response rating, Surinam Grass) was 30%. The pest or weed control at 125 g/ha (pigweed; [5]) was 10%, the pest or weed control at 500 g/ha (pigweed; [5]) was 20% and the pest or weed control at 125 g/ha (pigweed; pre-emergence, 0 = no effect, 100 = complete control, read-out: Pigweed plant response rating (0 to 100 scale)) was 50%. The pest or weed control at 500 g/ha (pigweed; pre-emergence, visual rating, 0 = no effect, 100 = complete control, read-out: Plant response rating, Pigweed) was 100%, the pest or weed control at 1000 g/ha (barnyardgrass [1]) was 40% and the pest or weed control at 125 g/ha (barnyardgrass [2]; [6]) was 0%. For the same compound, the pest or weed control at 500 g/ha (barnyardgrass [2]; [6]) was 10%, the pest or weed control at 125 g/ha (barnyardgrass [2]; pre-emergence, 0 = no effect, 100 = complete control, read-out: Barnyardgrass plant response rating (0 to 100 scale)) was 0% and the pest or weed control at 500 g/ha (barnyardgrass [2]; pre-emergence, visual rating, 0 = no effect, 100 = complete control, read-out: Plant response rating, Barnyardgrass) was 90%. The pest or weed control at 125 g/ha (lambsquarters; [7]) was 0%, the pest or weed control at 500 g/ha (lambsquarters; [7]) was 20% and the pest or weed control at 125 g/ha (lambsquarters; pre-emergence, 0 = no effect, 100 = complete control, read-out: Lambsquarters plant response rating (0 to 100 scale)) was 20%. The pest or weed control at 500 g/ha (lambsquarters; pre-emergence, visual rating, 0 = no effect, 100 = complete control, read-out: Plant response rating, Lambsquarters) was 100%, the pest or weed control at 125 g/ha (blackgrass; 125 g ai/ha) was 0% and the pest or weed control at 500 g/ha (blackgrass; 500 g ai/ha) was 0%. It also gave a pest or weed control at 125 g/ha (cocklebur; [8]) of 0%, a pest or weed control at 500 g/ha (cocklebur; [8]) of 20% and a pest or weed control at 125 g/ha (cocklebur; pre-emergence, 0 = no effect, 100 = complete control, read-out: Cocklebur plant response rating (0 to 100 scale)) of 0%. For the same compound, the pest or weed control at 500 g/ha (cocklebur; pre-emergence, visual rating, 0 = no effect, 100 = complete control, read-out: Plant response rating, Cocklebur) was 0%, the pest or weed control at 125 g/ha (velvetleaf; [9]) was 0% and the pest or weed control at 500 g/ha (velvetleaf; [9]) was 0%. For the same compound, the pest or weed control at 125 g/ha (velvetleaf; pre-emergence, 0 = no effect, 100 = complete control, read-out: Velvetleaf plant response rating (0 to 100 scale)) was 0%, the pest or weed control at 500 g/ha (velvetleaf; pre-emergence, visual rating, 0 = no effect, 100 = complete control, read-out: Plant response rating, Velvetleaf) was 50% and the pest or weed control at 125 g/ha (morningglory; [10]) was 0%. The pest or weed control at 500 g/ha (morningglory; [10]) was 0%, the pest or weed control at 125 g/ha (morningglory; pre-emergence, 0 = no effect, 100 = complete control, read-out: Morningglory plant response rating (0 to 100 scale)) was 0% and the pest or weed control at 500 g/ha (morningglory; pre-emergence, visual rating, 0 = no effect, 100 = complete control, read-out: Plant response rating, Morningglory) was 0%. The pest or weed control at 125 g/ha (large crabgrass; [11]) was 0%, the pest or weed control at 500 g/ha (large crabgrass; [11]) was 10% and the pest or weed control at 125 g/ha (large crabgrass; pre-emergence, 0 = no effect, 100 = complete control, read-out: Crabgrass, Large plant response rating (0 to 100 scale)) was 80%. The pest or weed control at 500 g/ha (large crabgrass; pre-emergence, visual rating, 0 = no effect, 100 = complete control, read-out: Plant response rating, Crabgrass, Large) was 100%, the plant injury at 125 g/ha (wheat; 125 g ai/ha) was 0% and the plant injury at 500 g/ha (wheat; 500 g ai/ha) was 10%. For the same compound, the pest or weed control at 1000 g/ha [3] was 80%, the pest or weed control at 125 g/ha (giant foxtail; [12]) was 10% and the pest or weed control at 500 g/ha (giant foxtail; [12]) was 10%. For the same compound, the pest or weed control at 125 g/ha (giant foxtail; pre-emergence, 0 = no effect, 100 = complete control, read-out: Foxtail, Giant plant response rating (0 to 100 scale)) was 0%, the pest or weed control at 500 g/ha (giant foxtail; pre-emergence, visual rating, 0 = no effect, 100 = complete control, read-out: Plant response rating, Foxtail, Giant) was 70% and the plant injury at 1000 g/ha (rice) was 20%.
